Laboratory results published in paper PMC12452389, “Arginine-Derived Cationic Surfactants Containing Phenylalanine and Tryptophan: Evaluation of Antifungal Activity, Biofilm Eradication, Cytotoxicity, and Ecotoxicity” (Journal of Xenobiotics, 2025).
Converted amounts (≈) assume the structure as drawn. Like-named read-outs stand apart in the source and are kept apart here. Peptide text beside a SMILES is read from it. * marks the point of attachment. Lauroyl = CCCCCCCCCCCC(=O)*

Experiments:
Daphnia magna = test: Acute toxicity, immobilization test; format: in vivo; conditions: Daphnia magna immobilization, 48 h of exposure; 95% confidence intervals in parentheses
Procedure: Aquatic toxicity evaluation was performed using Daphnia magna following established protocols. This bioassay method employs laboratory-cultured freshwater microcrustaceans to evaluate surfactant toxicity in aquatic environments. Test organisms were utilized during their initial 24 h life stage to ensure consistency. The endpoint measurement focused on mobility impairment, specifically the loss of swimming capability after gentle stimulation lasting 15 s. Testing conditions included controlled water chemistry parameters: pH maintained at 8.0, calcium-to-magnesium ratio of 4:1, and total hardness of 250 mg/L as CaCO3. All experiments were conducted under dark conditions at 20 °C. The experimental design incorporated ten test concentrations for each surfactant compound, distributed in geometric progression. Each concentration level included 20 Daphnia specimens distributed across four replicate groups of five organisms each. Mobility assessment occurred at 48 h post-exposure, with immobilization percentages plotted against concentration using probability–logarithmic scaling.

S. aureus SH1000 [1] = tested on: S. aureus SH1000; design: method as in PMID 19889790; conditions: cited from earlier work
S. aureus SH1000 [2] = tested on: S. aureus SH1000; design: method as in PMID 19889790; conditions: cited from earlier work; remark: listed apart in the source
[3] = design: method as in PMID 36559096; conditions: CO2 Headspace test, pass level 60%; cited from earlier work
[4] = design: method as in PMID 36559096; conditions: conductivity values; cited from earlier work
[5] = tested on: Candida glabrata ATCC 66032; test: MIC broth microdilution; format: cell-based; conditions: for MIC: Nakaseomyces glabratus, read-out: MIC
Procedure: (§1) The antimicrobial activity of these compounds was assessed against selected yeast and bacterial strains: Candida albicans ATCC 90028 (CA9), Candida rugosa ATCC 10571 (CR), Candida glabrata ATCC 66032 (CG), Candida parapsilosis ATCC 22019 (CP), Candida tropicalis ATCC 7349 (CT), Candida auris ATCC 21092 (CA), and Cyberlindnera jadinii ATCC 60459. Frozen yeast stocks were plated on Sabouraud agar (SBA) and incubated at 30 °C for 24 h. Three to four colonies from each strain were then suspended in RPMI 1640 (Roswell Park Memorial Institute medium, Sigma- Aldrich, Merck, Darmstadt, Germany) to prepare bacterial dispersions of ~1.5 × 10^6 CFU/mL.
(§2) A broth microdilution assay was used to calculate MIC values. Twofold serially diluted compounds in RPMI 1640 medium (from 256 to 2 μg/mL), were dispensed (100 μL per well) into a 96-well plate. Then, 100 μL of a yeast starter culture was added to each well to reach a final inoculum of 7.5 × 10^5 CFU/mL. Wells containing only nutrient broth without the tested surfactant served as growth controls. Microbial growth was assessed by turbidity, which reflects increases in biomass and cell count. […] To confirm the obtained MICs, 20 μL of 0.015% (w/v) resazurin was dispensed to each well and incubated for 3 h at 30 °C. Metabolic activity was evidenced by a color change from blue to pink, thereby confirming the MIC value.

[6] = tested on: Candida rugosa ATCC 10571; test: MIC broth microdilution; format: cell-based; conditions: C. rugosa; for MIC: Diutina rugosa, ATCC10571, read-out: MIC
Procedure: as §1, §2

[7] = tested on: Candida parapsilosis ATCC 22019; test: MIC broth microdilution; format: cell-based; conditions: C. parapsilosis; for MIC: Lodderomyces parapsilosis, ATCC22019, read-out: MIC
Procedure: as §1, §2

[8] = tested on: Candida albicans ATCC 90028; test: MIC broth microdilution; format: cell-based; conditions: C. albicans; for MIC: Candida albicans, ATCC90028, read-out: MIC
Procedure: as §1, §2

[9] = tested on: Candida tropicalis ATCC 7349; test: MIC broth microdilution; format: cell-based; conditions: C. tropicalis; for MIC: Candida tropicalis, ATCC7349, read-out: MIC
Procedure: as §1, §2

Candida auris ATCC 21092 = test: MIC broth microdilution; format: cell-based; conditions: C. auris; for MIC: Candidozyma auris, ATCC21092, read-out: MIC
Procedure: as §1, §2

[10] = tested on: Cyberlindnera jadinii ATCC 60459 (C. jardinii); test: MIC broth microdilution; format: cell-based; conditions: for MIC: Williopsis jadinii
Procedure: as §1, §2

erythrocytes = test: Hemolytic activity assay; format: cell-based; conditions: rabbit erythrocytes
Procedure: Fresh rabbit blood was obtained from the Animal Facility of the CID-CSIC (Research and Development Center, Spanish National Research Council, Barcelona, Spain). Sample collection was conducted in strict compliance with the bioethical guidelines established under Spanish legislation. Erythrocytes were isolated by centrifugation (3000 rpm/10 min). The supernatant was discarded, and the erythrocytes were washed three times with PBS (phosphate-buffered saline, pH 7.4) and then resuspended in PBS at a concentration of 8 × 10^9 cells/mL. Subsequently, varying volumes of a concentrated surfactant solution were added to Eppendorf tubes containing 25 μL of erythrocyte suspension. PBS was then added to bring the total volume to 1 mL. The samples were gently shaken for 10 min at room temperature and centrifuged at 10,000 rpm for 5 min. Hemolysis was evaluated by measuring the absorbance of the supernatant at 540 nm and comparing it to that of a 100% hemolysis control (erythrocytes treated with distilled water). The HC50, defined as the surfactant concentration that induces 50% hemolysis, was determined from the concentration–response curves: % hemolysis= Abstest compound/AbsBasal haemolytic activity ×100

[11] = Surface tension, pendant drop tensiometer (cmc, γc); format: physicochemical
Procedure: Surface tension was measured using a custom-built pendant drop tensiometer, as described in detail in reference. Briefly, a droplet of surfactant solution is formed at the tip of a straight-cut Teflon tube. The image of the droplet is captured using a webcam, and its shape is analyzed by fitting the droplet profile to the Laplace–Young equation [14], To minimize evaporation, all measurements were conducted in a saturated humid atmosphere. The use of this technique is especially well-suited for cationic surfactants because it helps to mitigate complications related to surface adsorption. Critical micelle concentration values (cmc) were determined by finding the intersection of the linear fits before and after the break in the curves.

C. albicans biofilms = test: Eradication of mature biofilm, MTT method; format: cell-based, Candida albicans; conditions: highest concentration tested
Procedure: Candida strains were cultured in SBA at 30 °C for 24 h. Yeast cells were then suspended in RPMI 1640 broth to a final concentration of 1.5 × 10^7 CFU/mL. For mature biofilm formation, 200 μL of these suspensions was transferred to each well of a 48-well microplate and incubated at 30 °C for 24 h. After incubation, the plate was washed with phosphate-buffered saline (PBS) to remove non-adherent cells. Then, surfactant solutions at various concentrations (200 μL), prepared in RPMI 1640, were added to the wells containing the mature biofilms. Plates were incubated again at 30 °C for 24 h. Following this treatment, the RPMI medium was removed, and wells were washed twice with PBS. To assess biofilm viability, 200 μL of MTT solution (3-(4,5-dimethylthiazol-2-yl)-2,5-diphenyltetrazolium bromide) were added to each well, and plates were incubated for 4 h. After incubation, the MTT solution was removed, and 200 μL of dimethyl sulfoxide (DMSO) were added to solubilize the formazan crystals. Absorbance at 540 nm (A540) was then measured using a microplate reader. Controls without the amino acid-based surfactants were included. All experiments were made in quadruplicate, and the results were averaged to ensure accuracy and reproducibility.
In this section, we have tested the ability of these cationic surfactants to eradicate mature fungal biofilms of C. albicans and C. tropicalis. Preformed biofilms of these two strains on 48-well plates were exposed to various concentrations of the synthesized surfactants, and the biofilm was not removed after the treatment was quantified using the MTT method (3-[4,5-dimethylthiazol-2-yl]-2,5 diphenyl tetrazolium bromide) (Figure 4). This method detects viable and metabolically active cells within the biofilm by measuring the reduction in MTT to formazan by active mitochondrial enzymes.

In the case of “dodecyl dimethyl ammonium bromide [DDAB, reference compound]”, the EC50 (Daphnia magna) was 0.15 (0.14–0.17) μg/mL.
In the case of `[H]/N=C(\N/C(=N/[H])NCCCCCCNC(=N)NC(=N)Nc1ccc(Cl)cc1)Nc1ccc(Cl)cc1` [chlorhexidine], the MIC (S. aureus SH1000 [1]) is listed as 1 mg/L (≈ 1.98 µM) and the MBEC (S. aureus SH1000 [2]) is listed as over 256 µg/mL.
For `CN(C)[C@@H]1C(O)=C(C(N)=O)C(=O)[C@@]2(O)C(O)=C3C(=O)c4c(O)cccc4[C@@](C)(O)[C@H]3C[C@@H]12` [tetracycline], the MIC (S. aureus SH1000 [1]) is given as 0.5 mg/L (≈ 1.13 µM) and the MBEC (S. aureus SH1000 [2]) is given as over 256 µg/mL.
In the case of `CCCCCCCCCCCC(=O)NC(Cc1c[nH]c2ccccc12)C(=O)NC(CCCNC(=N)N)C(=O)OC` (stereo not drawn) [C12TAM] (Lauroyl-Trp-Arg-OMe; configuration not given here), the biodegradation [3] is listed as “over 60%”, the “cmc Cond” value [4] is listed as 0.5 mM and the “Selectivity Index (HC50/MIC)” value ([5]; C. glabrata, Table S1) is listed as 1.4. The MIC ([5]; ATCC66032, 24 h, C. glabrata, RPMI 1640, 24 h, 30 °C) was 16 mg/L, the MIC ([5]; ATCC66032, C. glabrata, value in parentheses) was 27 µM and the “Selectivity Index (HC50/MIC)” value ([6]; Table S1) was 3. For the same molecule, the MIC ([6]; RPMI 1640, 24 h, 30 °C) was 8 mg/L, the MIC ([6]; value in parentheses) was 13 µM and the “Selectivity Index (HC50/MIC)” value ([7]; Table S1) was 1.4. For the same molecule, the MIC ([7]; RPMI 1640, 24 h, 30 °C) was 16 mg/L, the MIC ([7]; value in parentheses) was 27 µM and the “Selectivity Index (HC50/MIC)” value ([8]; Table S1) was 0.7. The MIC ([8]; RPMI 1640, 24 h, 30 °C) was 32 mg/L, the MIC ([8]; value in parentheses) was 54 µM and the “Selectivity Index (HC50/MIC)” value ([9]; Table S1) was 1.4. For the same molecule, the MIC ([9]; RPMI 1640, 24 h, 30 °C) was 16 mg/L, the MIC ([9]; value in parentheses) was 27 µM and the “Selectivity Index (HC50/MIC)” value (Candida auris ATCC 21092; Table S1) was 1.4. The MIC (Candida auris ATCC 21092; RPMI 1640, 24 h, 30 °C) was 16 mg/L, the MIC (Candida auris ATCC 21092; value in parentheses) was 27 µM and the “Selectivity Index (HC50/MIC)” value ([10]; C. jardini, Table S1) was 0.7. It also gave an MIC ([10]; ATCC60459) of 54 µM, an MIC ([10]; ATCC60459, 24 h) of 32 mg/L and an HC50 (erythrocytes; 10 min, room temperature) of 24 ± 0.8 µg/mL. For the same molecule, the HC50 (erythrocytes; value in parentheses) was 40 ± 1.6 µM, the “γc (surface tension at the cmc)” value [11] was 32.1 ± 2.3 mNm^−1 and the cmc ([11]; from surface tension) was 0.65 mM. For the same molecule, the “reduction of the metabolic activity of the biofilm” value (C. albicans biofilms) was “less than 65%”.
